Measurements as given in patent publication US5977106A, “3,5-dioxo-(2H,4H)-1,2,4-triazine derivatives” (Pierre Fabre Medicament, priority 1994, dated 1999).
Counter-ions that a name gives are not always drawn. Like-named read-outs stand apart in the source and are kept apart here.

Columns and labels:
5-HT1A receptor = molecular target: T1, 5-HT1A receptor (Rattus norvegicus, UniProt P19327); experiment: biochemical; type: binding; settings: rat cerebral cortex, [^3 H]8-OH-DPAT 0.2 nM, 23° C., 30 minutes, mean of 3 to 5 experiments; for Ki: read-out: pKi (Affinity for the 5-HT1A receptor) (converted)
T1 sequence (P19327 1-422): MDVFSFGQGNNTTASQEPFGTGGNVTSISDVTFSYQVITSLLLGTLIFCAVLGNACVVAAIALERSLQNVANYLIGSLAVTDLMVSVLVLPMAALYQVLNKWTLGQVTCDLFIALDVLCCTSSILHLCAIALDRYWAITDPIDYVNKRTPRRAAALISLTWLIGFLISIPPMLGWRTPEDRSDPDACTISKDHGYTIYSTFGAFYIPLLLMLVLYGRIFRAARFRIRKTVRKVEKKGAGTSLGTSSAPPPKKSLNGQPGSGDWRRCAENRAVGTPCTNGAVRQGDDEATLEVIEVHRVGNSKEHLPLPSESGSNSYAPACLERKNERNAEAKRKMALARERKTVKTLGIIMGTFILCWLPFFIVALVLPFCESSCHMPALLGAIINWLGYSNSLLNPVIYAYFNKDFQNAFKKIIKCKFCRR

[1] = molecular target: T2, 5-HT1A type serotoninergic receptors (Rattus norvegicus, UniProt P19327); experiment: 5-HT syndrome in rats (FBP, LLR, FPT); type: in vivo; settings: ip, male Sprague Dawley rats
T2 construct: carried out in male rats (Sprague Dawley); from tissue; host or cells: living male Sprague Dawley rats (whole animal)
T2 sequence (P19327 1-422): T1 sequence (P19327 1-422)
Protocol: The central activity of the compounds of the invention was evaluated for their capacity to cause the 5-HT syndrome, which is characterized by reciprocal fore-paw treading (FPT), lower-lip retraction (LLR) and flat body posture (FBP).
The experiments for the evaluation of the 5-HT syndrome are carried out in male rats (Sprague Dawley) according to the method described by F.C COLPAERT et al (Drug Dev. Res., 26, 21-48; 1992).

[2] = FPT, read-out: ED50 reciprocal fore-paw treading (FPT), 5-HT syndrome
[3] = FBP, read-out: ED50 flat body posture (FBP), 5-HT syndrome
[4] = LLR, read-out: ED50 lower-lip retraction (LLR), 5-HT syndrome

Ki (5-HT1A receptor) [nM] | Compound | further results
2.82 | CN(CCCCn1ncc(=O)n(C)c1=O)CC1COc2ccccc2O1 (stereo not drawn) [Compound 15, 4-methyl-2-(4-(N-methyl, 1,4-benzodioxan-2-ylmethylamino)butyl)-3,5-dioxo-(2H,4H)-1,2,4-triazine fumarate] | 
6.46 | Cc1nn(CCCCN2CCN(c3cccc(C(F)(F)F)c3)CC2)c(=O)[nH]c1=O [Compound 12, 6-methyl-2-(4-(4-(3-trifluoromethylphenyl)piperazino)butyl)-3,5-dioxo-(2H,4H)-1,2,4-triazine] | 
0.724 | Cc1ccnc(N2CCN(CCCCn3ncc(=O)n(C)c3=O)CC2)n1 [Compound 25] | 
3.31 | Cn1c(=O)cnn(CCCCN2CCN(c3ncccn3)CC2)c1=O [Compound 30, 4-methyl-2-(4-(4-(2-pyrimidinyl)piperazino)butyl)-3,5-dioxo-(2H,4H)-1,2,4-triazine fumarate] | 
0.269 | Cn1c(=O)cnn(CCCCN2CCN(c3cccc(Cl)c3)CC2)c1=O [Compound 4, 4-methyl-2-(4-(4-(3-chlorophenyl)piperazino)butyl)-3,5-dioxo-(2H,4H)-1,2,4-triazine] | 
0.794 | Cn1c(=O)cnn(CCCCN2CCN(c3nccc(Cl)n3)CC2)c1=O [Compound 24] | 
0.132 | COc1ccccc1N1CCN(CCCCn2ncc(=O)n(C)c2=O)CC1 [Compound 11] | 
 | O=C1CC2(CCCC2)CC(=O)N1CCCCN1CCN(c2ncccn2)CC1 [Buspirone, reference compound] | ED50 [1, 2]: > 40 mg/kg
 | 4-methyl-2-(4-(2,3-dihydro-1,4-dioxino-[2,3-b]-pyridin-2-ylmethylamino)butyl)-3,5-dioxo-(2H,4H)-1,2,4-triazine fumarate [Compound 16] | pKi (Affinity for the 5-HT1A receptor) (5-HT1A receptor): 9.36
0.0324 | COc1ccc2cccc(N3CCN(CCCCn4ncc(=O)n(C)c4=O)CC3)c2c1 [Compound 10, 4-methyl-2-(4-(4-(7-methoxynaphthalene-1-yl)piperazino)butyl-3,5-dioxo-(2H,4H)-1,2,4-triazine fumarate] | ED50 [1, 3]: 0.02 mg/kg; ED50 [1, 2]: 0.02 mg/kg; ED50 [1, 4]: 0.005 mg/kg
0.646 | Cc1cc(C)nc(N2CCN(CCCCn3ncc(=O)n(C)c3=O)CC2)n1 [Compound 26, 4-methyl-2-(4-(4-(4,6-dimethyl-2-pyrimidinyl)piperazino)butyl)-3,5-dioxo-(2H,4H)-1,2,4-triazine] | 
0.851 | COc1ccnc(N2CCN(CCCCn3ncc(=O)n(C)c3=O)CC2)n1 [Compound 28, 4-methyl-2-(4-(4-(4-methoxy-2-pyrimidinyl)piperazino)butyl)-3,5-dioxo-(2H,4H)-1,2,4-triazine] | 
2.63 | Cn1c(=O)cnn(CCCCN2CCN(c3ccc(Cl)c(Cl)c3)CC2)c1=O [Compound 21, 4-methyl-2-(4-(4-(3,4-dichloro-phenyl)piperazino)butyl)-3,5-dioxo-(2H,4H)-1,2,4-triazine] | 
0.269 | Cn1c(=O)cnn(CCCCNCC2COc3ccccc3O2)c1=O (stereo not drawn) [Compound 14, 4-methyl-2-(4-(1,4-benzodioxane-2-ylmethylamino)butyl)-3,5-dioxo-(2H,4H)-1,2,4-triazine] | 
 | 4-methyl-2-(4-(4-(4,6-dimethyl-2-pyrimidinyl)piperazino)butyl)-3,5-dioxo-(2H,4H)-1,2,4-triazine [Compound 27] | pKi (Affinity for the 5-HT1A receptor) (5-HT1A receptor): 9.23
0.316 | Cn1c(=O)cnn(CCCCN2CCN(c3cccc(Cl)c3Cl)CC2)c1=O [Compound 22, 4-methyl-2-(4-(4-(2,3-dichloro-phenyl)piperazino)butyl)-3,5-dioxo-(2H,4H)-1,2,4-triazine] | 
0.912 | Cn1c(=O)cnn(CCCCN2CCN(c3cc(Cl)cc(Cl)c3)CC2)c1=O [Compound 23, 4-methyl-2-(4-(4-(3,5-dichloro-phenyl)piperazino)butyl)-3,5-dioxo-(2H,4H)-1,2,4-triazine] | 
4.57 | Cn1c(=O)cnn(CCCCN2CCN(c3ncccn3)CC2)c1=O [Compound 9, 4-methyl-2-(4-(4-pyrimidinyl-2)piperazino)butyl-3,5-dioxo-(2H,4H)-1,2,4-triazine] | ED50 [1, 3]: 0.08 mg/kg; ED50 [1, 2]: 0.31 mg/kg; ED50 [1, 4]: 0.08 mg/kg
2.63 | Cc1nn(CCCCN2CCN(c3cccc(C(F)(F)F)c3)CC2)c(=O)n(C)c1=O [Compound 13, 4,6-dimethyl-2-(4-(4-(3-trifluoromethylphenyl)piperazino)butyl-3,5-dioxo-(2H,4H)-1,2,4-triazine hydrochloride] | 
0.55 | O=c1cnn(CCCCN2CCN(c3cccc(C(F)(F)F)c3)CC2)c(=O)[nH]1 [Compound 1, 2-[4-(4-(3-trifluoromethylphenyl)piperazino)butyl]-3,5-dioxo-(2H,4H)-1,2,4-triazine hydrochloride] | 

Compound | Ki (5-HT1A receptor) [nM] | further results
Cl.Cn1c(=O)cnn(CCCCN2CCN(c3cccc(C(F)(F)F)c3)CC2)c1=O [Compound 3, 4-methyl-2-(4-(4-(3-trifluoromethylphenyl)piperazino)butyl)-3,5-dioxo-(2H,4H)-1,2,4-triazine hydrochloride] | 0.24 | ED50 [1, 3]: 0.31 mg/kg; ED50 [1, 2]: 0.31 mg/kg; ED50 [1, 4]: 0.08 mg/kg
